Assays:
Format in all cases: in vivo
C57BL/6 mice [1] = assay: Reduction of fatty liver condition by Compound 1 with ergosterol versus Compound 1 alone (STZ + high-fat diet model), liver histology; conditions: Compound 1 48 mg/kg twice a day oral, with or without ergosterol 12 mg/kg twice a day
C57BL/6 mice [2] = assay: Fibrosis of steatohepatitis caused by non-chemical injury (STZ + high-fat diet model), histology and blood/plasma biochemistry
Description: (§1) In order to simulate an unhealthy diet tendency in humans, such as excess consumption of high caloric food, the example constructs an animal model using […] fed a high fat diet to evaluate the effects of chronic liver injury.
(§2) The assay simulates liver disease caused by a high fat diet through a “Metabolic Syndrome” model. That is, the model is different from conventional chemical induced models caused by toxic components such as CCl4. This model is distinguishable from the models caused by virus or alcohol.
(§3) The establishment of a long term high-fat diet is described as follows: First, the C57BL/6 mice were obtained from Charles River Laboratories Japan (Kanagawa, Japan). Animals were housed under specific-pathogen-free (SPF) conditions. The liver injury was developed in 18 male mice by subcutaneous injection of Streptozotocin (STZ) 2 days after birth (day 2). After 4 weeks, a high-fat commercial rodent diet ad libitum (CLEA JAPAN) were supplied. These mice were randomized into 3 groups before the treatment. The test compound was administered in a volume of 10 ml/kg twice a day for three weeks. In the control group (group A), six […] were fed with vehicle (corn oil from Sigma Chemical Co.) via intubation. Six mice in group B were orally administered vehicle and the test compound at a dose of 48 mg/kg twice a day (96 mg/kg per day).
(§4) (1) HE Staining. The HE staining method is performed as follows: Liver slices are cut from the livers' left side, embedded in Tissue-Tek® OCT™ Compounds (Sakura Finetek, Japan), snap frozen in liquid nitrogen, and stored at −80° C. 5 μm sections are cut, air-dried, fixed in acetone, air dried again and finally washed with phosphate buffered saline (PBS). Then, in the hematoxylin and eosin staining method, liver sections will be prefixed in a Bouin solution (formalin-acetic acid) for one week and then stained with Lillie-Mayer's Hematoxylin (Muto Pure Chemicals, Japan) and eosin solution (Wako, Japan) to visualize the lipid deposition, inflammations, cell necrosis and fibrosis, or stained with Masson's trichromic solution to visualize extra cellular matrix and collagen fibers of liver fibrosis development.
(§5) (2) Sirius Red Staining. The Sirius Red staining method is performed as follows: Liver slices are cut from the livers' left side, embedded in Tissue-Tek® OCT™ Compounds (Sakura Finetek, Japan), snap frozen in liquid nitrogen, and stored at −80° C. 5 μm sections are cut, air-dried, fixed in acetone, air dried again and finally washed with phosphate buffered saline (PBS). Then, liver sections are stained with a Picro-Sirius Red Solution (Waldeck GmbH & KG, Germany) to observe collagen deposition.
(§6) (3) Immunohistochemistry of Collagen Type 3. The immunohistochemistry assay for collagen Type 3 is performed as follows: Liver slices are cut from the livers' left side, embedded in Tissue-Tek® OCT™ Compounds (Sakura Finetek, Japan), snap frozen in liquid nitrogen, and stored at −80° C. 5 μm sections are cut, air-dried, fixed in acetone, air dried again and finally washed with phosphate buffered saline (PBS). For immunohistochemistry, endogenous peroxidase activity will be blocked by using 0.03% H2O2 for 5 minutes, followed by incubation with Block Ace (Dainippon Sumitomo Pharm, Japan) for 10 minutes. The sections will be incubated with the optimal dilution of anti-Type 3 collagen antibody overnight at 4° C. After incubation with an appropriate secondary antibody, the substrate reactions are performed using DAB/H2O2 solution (Nichirei, Japan).
(§7) (1) Whole Blood Glucose. Blood samples were collected in heparinized syringes (Novo-Heparin 5,000 units/5 ml, Mochida Pharmaceutical, Japan) by cardiac puncture, kept on ice and centrifuged at 1,000×g at 4° C. for 15 minutes. The supernatant was collected and stored at −80° C. until use. Blood glucose was measured in whole blood samples using G Checker (Sanko Junyaku Co. Ltd., Japan). […]

C57BL/6 mice [3] = assay: Fatty liver disease caused by non-chemical injury (STZ + high-fat diet Metabolic Syndrome model), histology and blood/plasma biochemistry; conditions: 48 mg/kg oral twice a day
Description: as §1, §2, §3, §4, §5, §6, §7

**Q.** For `COC1=C(OC)C(O)C(C/C=C(\C)CC/C=C(\C)CCC=C(C)C)C(C)C1=O` (stereo not shown) [Compound 1, 4-hydroxy-2,3-dimethoxy-6-methyl-5 (3,7,11-trimethyl-dodeca-2,6,10-trienyl)-cyclohex-2-enone], which “collagen deposition, Sirius red staining” value (C57BL/6 mice [1]; vs control group) is on record?
**A.** Its value is “tended only slightly to decrease the collagen deposition”.

**Q.** What about the “collagen deposition (thickness of collagen fibers in the sinusoidal area), collagen Type 3 immunostaining” value (C57BL/6 mice [1]; vs vehicle) of the same compound?
**A.** Its value is “tended to reduce the collagen deposition”.

**Q.** What about the “infiltration of inflammatory cells, HE-stained liver sections” value (C57BL/6 mice [1]; vs vehicle) of the same compound?
**A.** The value was “did not affect the infiltration of inflammatory cells”.

**Q.** And the “macro vesicular fat deposition, HE-stained liver sections” value (C57BL/6 mice [1]; vs vehicle)?
**A.** Its value is “tended to decrease the macro vesicular fat deposition”.

**Q.** What about the “collagen deposition around the central veins and the bile ducts, Sirius red staining” value (C57BL/6 mice [2]; compared to vehicle Group A) of the same compound?
**A.** Its value is “reduced”.

**Q.** And the “collagen fibers in the sinusoidal area, collagen Type 3 immunostaining” value (C57BL/6 mice [2]; compared to vehicle Group A)?
**A.** Its value is “tended to reduce the thickness and/or the length of the collagen fibers”.

**Q.** And the “macro-vesicular fat deposition, HE-stained liver sections” value (C57BL/6 mice [2]; compared to vehicle Group A)?
**A.** Its value is “tended to decrease the macro-vesicular fat deposition”.

**Q.** What about the “plasma ALT level” value (C57BL/6 mice [2]; vehicle Group A 47±22) of the same compound?
**A.** The value was 38±11 U/L.

**Q.** What about the “plasma AST level” value (C57BL/6 mice [2]; vehicle Group A 143±42, change not significant) of the same compound?
**A.** The value was 167±87 U/L.

**Q.** And the “whole blood glucose level” value (C57BL/6 mice [2]; vehicle Group A 728±109)?
**A.** Its value is 566 ± 65 mg/dL.

**Q.** What about the “plasma triglyceride (TG)” value (C57BL/6 mice [2]; vehicle Group A 758±877) of the same compound?
**A.** The value was 704 ± 450 mg/dL.

**Q.** And the “collagen deposition around the central veins and the bile ducts, Sirius red staining” value (C57BL/6 mice [3]; compared to vehicle Group A)?
**A.** The value was “reduced”.

**Q.** What about the “collagen fibers in the sinusoidal area, collagen Type 3 immunostaining” value (C57BL/6 mice [3]; compared to vehicle Group A) of the same compound?
**A.** Its value is “tended to reduce the thickness and/or the length of the collagen fibers”.

**Q.** What about the “infiltration of inflammatory cells, HE-stained liver sections” value (C57BL/6 mice [3]; compared to vehicle Group A) of the same compound?
**A.** The value was “tended to decrease the infiltration of inflammatory cells”.

**Q.** And the “macro-vesicular fat deposition, HE-stained liver sections” value (C57BL/6 mice [3]; compared to vehicle Group A)?
**A.** The value was “tended to decrease the macro-vesicular fat deposition”.

**Q.** And the “plasma ALT level” value (C57BL/6 mice [3]; vehicle Group A 64±64)?
**A.** The value was 34±10 U/L.

**Q.** What about the “plasma AST level” value (C57BL/6 mice [3]; vehicle Group A 202±177) of the same compound?
**A.** The value was 141±35 U/L.

**Q.** What about the “whole blood glucose level” value (C57BL/6 mice [3]; vehicle Group A 636±137) of the same compound?
**A.** Its value is 580 ± 122 mg/dL.

**Q.** And the “plasma triglyceride (TG)” value (C57BL/6 mice [3]; vehicle Group A 643±402)?
**A.** The value was 229 ± 144 mg/dL.

Reference: patent US10959963B2, “Method for the treatment of fatty liver disease” (Golden Biotechnology Corporation, priority 2013, dated 2021)
